Assay results taken from article PMC4917279 (Journal of Medicinal Chemistry, 2016).

Assays:
Experiment in all cases: KINOMEscan
Assay type in all cases: binding
Settings in all cases: read-out: %Ctrl @ 1000 nM
CAMK1 = biological target: T1, CAMK1 (Homo sapiens, UniProt Q14012)
T1 construct: purchased DiscoveRx KINOMEscan

NIM1 = biological target: T2, NIM1 (Homo sapiens, UniProt Q8IY84)
T2 construct: purchased DiscoveRx KINOMEscan

VEGFR2 = biological target: T3, VEGFR2 (Homo sapiens, UniProt P35968)
T3 construct: purchased DiscoveRx KINOMEscan

CASK = biological target: T4, CASK (Homo sapiens, UniProt O14936)
T4 construct: purchased DiscoveRx KINOMEscan

FLT3(D835Y) = biological target: T5, FLT3(D835Y) (Homo sapiens, UniProt P36888, D835Y)
T5 construct: purchased DiscoveRx KINOMEscan

MEK6 = biological target: T6, MEK6 (Homo sapiens, UniProt P52564)
T6 construct: purchased DiscoveRx KINOMEscan

[1] = biological target: T7, ABL1(F317L)-phosphorylated (Homo sapiens, UniProt P00519, F317L)
T7 construct: purchased DiscoveRx (KINOMEscan service)

NEK1 = biological target: T8, NEK1 (Homo sapiens, UniProt Q96PY6)
T8 construct: purchased DiscoveRx KINOMEscan

PIK3CA(H1047Y) = biological target: T9, PIK3CA(H1047Y) (Homo sapiens, UniProt P42336, H1047Y)
T9 construct: purchased DiscoveRx KINOMEscan
T9 sequence (P42336 whole entry H1047Y): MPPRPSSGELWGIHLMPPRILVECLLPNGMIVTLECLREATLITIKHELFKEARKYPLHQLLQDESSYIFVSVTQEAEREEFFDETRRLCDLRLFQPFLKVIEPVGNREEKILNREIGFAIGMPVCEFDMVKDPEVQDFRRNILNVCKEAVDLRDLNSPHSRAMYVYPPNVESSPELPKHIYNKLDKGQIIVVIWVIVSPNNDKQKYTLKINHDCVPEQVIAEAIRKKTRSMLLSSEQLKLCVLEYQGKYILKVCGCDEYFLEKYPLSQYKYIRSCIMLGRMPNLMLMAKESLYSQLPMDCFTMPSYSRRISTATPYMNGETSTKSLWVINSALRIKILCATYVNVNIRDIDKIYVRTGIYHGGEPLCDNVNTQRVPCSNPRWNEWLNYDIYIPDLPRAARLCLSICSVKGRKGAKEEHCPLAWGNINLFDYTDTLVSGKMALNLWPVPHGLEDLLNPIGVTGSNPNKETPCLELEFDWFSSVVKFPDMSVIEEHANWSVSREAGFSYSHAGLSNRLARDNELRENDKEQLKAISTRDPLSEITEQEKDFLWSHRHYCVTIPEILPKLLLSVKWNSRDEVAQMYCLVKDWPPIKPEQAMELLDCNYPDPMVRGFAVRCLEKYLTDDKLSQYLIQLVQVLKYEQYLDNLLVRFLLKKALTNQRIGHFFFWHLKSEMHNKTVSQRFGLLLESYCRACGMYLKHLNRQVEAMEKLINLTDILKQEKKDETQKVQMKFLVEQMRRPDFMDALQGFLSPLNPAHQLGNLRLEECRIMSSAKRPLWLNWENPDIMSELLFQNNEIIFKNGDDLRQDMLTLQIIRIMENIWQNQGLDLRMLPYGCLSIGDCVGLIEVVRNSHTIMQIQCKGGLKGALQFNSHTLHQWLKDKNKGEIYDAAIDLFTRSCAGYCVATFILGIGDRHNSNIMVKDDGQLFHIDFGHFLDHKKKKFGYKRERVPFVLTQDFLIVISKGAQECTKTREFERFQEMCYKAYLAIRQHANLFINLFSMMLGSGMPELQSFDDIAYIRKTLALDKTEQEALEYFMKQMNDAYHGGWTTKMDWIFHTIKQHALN

MAPKAPK2 = biological target: T10, MAPKAPK2 (Homo sapiens, UniProt P49137)
T10 construct: purchased DiscoveRx KINOMEscan

NLK = biological target: T11, NLK (Homo sapiens, UniProt Q9UBE8)
T11 construct: purchased DiscoveRx KINOMEscan

[2] = biological target: T12, ABL1(Q252H)-nonphosphorylated (Homo sapiens, UniProt P00519, Q252H)
T12 construct: purchased DiscoveRx (KINOMEscan service)

[3] = biological target: T13, ABL1(H396P)-phosphorylated (Homo sapiens, UniProt P00519, H396P)
T13 construct: purchased DiscoveRx (KINOMEscan service)

[4] = biological target: T14, TYK2(JH2domain-pseudokinase) (Homo sapiens, UniProt P29597)
T14 construct: TYK2(JH2domain-pseudokinase); purchased DiscoveRx KINOMEscan

SGK3 = biological target: T15, SGK3 (Homo sapiens, UniProt Q96BR1)
T15 construct: purchased DiscoveRx KINOMEscan
T15 sequence (Q96BR1 whole entry): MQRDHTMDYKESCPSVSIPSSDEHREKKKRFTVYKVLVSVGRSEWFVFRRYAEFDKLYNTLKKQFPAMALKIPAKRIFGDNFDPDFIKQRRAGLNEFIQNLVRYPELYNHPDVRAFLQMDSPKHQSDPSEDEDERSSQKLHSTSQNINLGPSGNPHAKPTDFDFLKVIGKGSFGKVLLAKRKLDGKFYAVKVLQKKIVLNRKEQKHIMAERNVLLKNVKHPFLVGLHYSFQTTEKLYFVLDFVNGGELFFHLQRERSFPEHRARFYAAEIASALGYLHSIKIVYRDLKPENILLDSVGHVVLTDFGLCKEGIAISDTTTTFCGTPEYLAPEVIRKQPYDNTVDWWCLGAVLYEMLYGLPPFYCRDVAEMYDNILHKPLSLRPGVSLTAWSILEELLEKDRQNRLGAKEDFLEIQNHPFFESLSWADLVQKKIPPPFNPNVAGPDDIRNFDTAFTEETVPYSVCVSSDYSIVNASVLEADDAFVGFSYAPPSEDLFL

MYLK = biological target: T16, MYLK (Homo sapiens, UniProt Q15746)
T16 construct: purchased DiscoveRx KINOMEscan

FRK = biological target: T17, FRK (Homo sapiens, UniProt P42685)
T17 construct: purchased DiscoveRx KINOMEscan

SNRK = biological target: T18, SNRK (Homo sapiens, UniProt Q9NRH2)
T18 construct: purchased DiscoveRx KINOMEscan

PLK1 = biological target: T19, PLK1 (Homo sapiens, UniProt P53350)
T19 construct: purchased DiscoveRx KINOMEscan

AAK1 = biological target: T20, AAK1 (Homo sapiens, UniProt Q2M2I8)
T20 construct: purchased DiscoveRx (KINOMEscan service)

MAP3K4 = biological target: T21, MAP3K4 (Homo sapiens, UniProt Q9Y6R4)
T21 construct: purchased DiscoveRx KINOMEscan

RET(V804M) = biological target: T22, RET(V804M) (Homo sapiens, UniProt P07949, V804M)
T22 construct: purchased DiscoveRx KINOMEscan
T22 sequence (P07949 29-1114 V804M): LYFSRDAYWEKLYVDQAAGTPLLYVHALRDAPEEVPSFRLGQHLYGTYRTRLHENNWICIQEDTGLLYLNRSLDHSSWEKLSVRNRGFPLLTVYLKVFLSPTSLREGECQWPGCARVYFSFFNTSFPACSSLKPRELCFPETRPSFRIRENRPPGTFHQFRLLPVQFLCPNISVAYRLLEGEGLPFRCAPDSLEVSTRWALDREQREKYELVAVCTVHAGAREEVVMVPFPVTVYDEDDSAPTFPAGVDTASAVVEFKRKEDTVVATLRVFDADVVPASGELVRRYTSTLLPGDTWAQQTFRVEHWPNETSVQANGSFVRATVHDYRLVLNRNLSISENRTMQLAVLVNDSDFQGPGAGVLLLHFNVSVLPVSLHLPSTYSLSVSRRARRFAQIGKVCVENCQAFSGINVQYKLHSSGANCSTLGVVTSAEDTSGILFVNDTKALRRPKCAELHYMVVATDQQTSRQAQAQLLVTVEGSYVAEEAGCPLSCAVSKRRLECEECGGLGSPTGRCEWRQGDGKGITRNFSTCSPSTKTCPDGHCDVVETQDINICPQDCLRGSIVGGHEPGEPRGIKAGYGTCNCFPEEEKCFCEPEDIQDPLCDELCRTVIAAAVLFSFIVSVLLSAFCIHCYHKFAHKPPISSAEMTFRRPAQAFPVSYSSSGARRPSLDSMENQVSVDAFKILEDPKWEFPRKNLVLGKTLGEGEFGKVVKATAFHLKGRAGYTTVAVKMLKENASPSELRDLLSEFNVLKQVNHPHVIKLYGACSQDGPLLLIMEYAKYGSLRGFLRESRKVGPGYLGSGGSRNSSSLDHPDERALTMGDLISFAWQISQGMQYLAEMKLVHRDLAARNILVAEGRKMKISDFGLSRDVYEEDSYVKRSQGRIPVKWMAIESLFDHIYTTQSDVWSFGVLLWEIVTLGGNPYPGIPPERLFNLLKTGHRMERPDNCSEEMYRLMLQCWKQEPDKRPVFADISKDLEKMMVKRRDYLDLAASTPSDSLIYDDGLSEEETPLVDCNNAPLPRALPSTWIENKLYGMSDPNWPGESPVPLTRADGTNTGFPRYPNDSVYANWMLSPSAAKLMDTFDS

KIT-autoinhibited = biological target: T23, KIT-autoinhibited (Homo sapiens, UniProt P10721)
T23 construct: purchased DiscoveRx KINOMEscan

EGFR(G719S) = biological target: T24, EGFR(G719S) (Homo sapiens, UniProt P00533, G719S)
T24 construct: purchased DiscoveRx KINOMEscan

KIT(A829P) = biological target: T25, KIT(A829P) (Homo sapiens, UniProt P10721, A829P)
T25 construct: purchased DiscoveRx KINOMEscan

TESK1 = biological target: T26, TESK1 (Homo sapiens, UniProt Q15569)
T26 construct: purchased DiscoveRx KINOMEscan

[5] = biological target: T27, ABL1(F317L)-nonphosphorylated (Homo sapiens, UniProt P00519, F317L)
T27 construct: purchased DiscoveRx (KINOMEscan service)

PDPK1 = biological target: T28, PDPK1 (Homo sapiens, UniProt O15530)
T28 construct: purchased DiscoveRx KINOMEscan

PIM3 = biological target: T29, PIM3 (Homo sapiens, UniProt Q86V86)
T29 construct: purchased DiscoveRx KINOMEscan

AURKC = biological target: T30, AURKC (Homo sapiens, UniProt Q9UQB9)
T30 construct: purchased DiscoveRx KINOMEscan

TLK2 = biological target: T31, TLK2 (Homo sapiens, UniProt Q86UE8)
T31 construct: purchased DiscoveRx KINOMEscan

EPHA6 = biological target: T32, EPHA6 (Homo sapiens, UniProt Q9UF33)
T32 construct: purchased DiscoveRx KINOMEscan

ERK3 = biological target: T33, ERK3 (Homo sapiens, UniProt Q16659)
T33 construct: purchased DiscoveRx KINOMEscan

[6] = biological target: T34, EGFR(L747-S752del, P753S) (Homo sapiens, UniProt P00533, DEL747-752/P753S)
T34 construct: purchased DiscoveRx KINOMEscan

NEK10 = biological target: T35, NEK10 (Homo sapiens, UniProt Q6ZWH5)
T35 construct: purchased DiscoveRx KINOMEscan

STK36 = biological target: T36, STK36 (Homo sapiens, UniProt Q9NRP7)
T36 construct: purchased DiscoveRx KINOMEscan

PIK3C2G = biological target: T37, PIK3C2G (Homo sapiens, UniProt O75747)
T37 construct: purchased DiscoveRx KINOMEscan

RAF1 = biological target: T38, RAF1 (Homo sapiens, UniProt P04049)
T38 construct: purchased DiscoveRx KINOMEscan

BRAF(V600E) = biological target: T39, BRAF(V600E) (Homo sapiens, UniProt P15056, V600E)
T39 construct: purchased DiscoveRx KINOMEscan

WNK3 = biological target: T40, WNK3 (Homo sapiens, UniProt Q9BYP7)
T40 construct: purchased DiscoveRx KINOMEscan
T40 sequence (Q9BYP7 whole entry): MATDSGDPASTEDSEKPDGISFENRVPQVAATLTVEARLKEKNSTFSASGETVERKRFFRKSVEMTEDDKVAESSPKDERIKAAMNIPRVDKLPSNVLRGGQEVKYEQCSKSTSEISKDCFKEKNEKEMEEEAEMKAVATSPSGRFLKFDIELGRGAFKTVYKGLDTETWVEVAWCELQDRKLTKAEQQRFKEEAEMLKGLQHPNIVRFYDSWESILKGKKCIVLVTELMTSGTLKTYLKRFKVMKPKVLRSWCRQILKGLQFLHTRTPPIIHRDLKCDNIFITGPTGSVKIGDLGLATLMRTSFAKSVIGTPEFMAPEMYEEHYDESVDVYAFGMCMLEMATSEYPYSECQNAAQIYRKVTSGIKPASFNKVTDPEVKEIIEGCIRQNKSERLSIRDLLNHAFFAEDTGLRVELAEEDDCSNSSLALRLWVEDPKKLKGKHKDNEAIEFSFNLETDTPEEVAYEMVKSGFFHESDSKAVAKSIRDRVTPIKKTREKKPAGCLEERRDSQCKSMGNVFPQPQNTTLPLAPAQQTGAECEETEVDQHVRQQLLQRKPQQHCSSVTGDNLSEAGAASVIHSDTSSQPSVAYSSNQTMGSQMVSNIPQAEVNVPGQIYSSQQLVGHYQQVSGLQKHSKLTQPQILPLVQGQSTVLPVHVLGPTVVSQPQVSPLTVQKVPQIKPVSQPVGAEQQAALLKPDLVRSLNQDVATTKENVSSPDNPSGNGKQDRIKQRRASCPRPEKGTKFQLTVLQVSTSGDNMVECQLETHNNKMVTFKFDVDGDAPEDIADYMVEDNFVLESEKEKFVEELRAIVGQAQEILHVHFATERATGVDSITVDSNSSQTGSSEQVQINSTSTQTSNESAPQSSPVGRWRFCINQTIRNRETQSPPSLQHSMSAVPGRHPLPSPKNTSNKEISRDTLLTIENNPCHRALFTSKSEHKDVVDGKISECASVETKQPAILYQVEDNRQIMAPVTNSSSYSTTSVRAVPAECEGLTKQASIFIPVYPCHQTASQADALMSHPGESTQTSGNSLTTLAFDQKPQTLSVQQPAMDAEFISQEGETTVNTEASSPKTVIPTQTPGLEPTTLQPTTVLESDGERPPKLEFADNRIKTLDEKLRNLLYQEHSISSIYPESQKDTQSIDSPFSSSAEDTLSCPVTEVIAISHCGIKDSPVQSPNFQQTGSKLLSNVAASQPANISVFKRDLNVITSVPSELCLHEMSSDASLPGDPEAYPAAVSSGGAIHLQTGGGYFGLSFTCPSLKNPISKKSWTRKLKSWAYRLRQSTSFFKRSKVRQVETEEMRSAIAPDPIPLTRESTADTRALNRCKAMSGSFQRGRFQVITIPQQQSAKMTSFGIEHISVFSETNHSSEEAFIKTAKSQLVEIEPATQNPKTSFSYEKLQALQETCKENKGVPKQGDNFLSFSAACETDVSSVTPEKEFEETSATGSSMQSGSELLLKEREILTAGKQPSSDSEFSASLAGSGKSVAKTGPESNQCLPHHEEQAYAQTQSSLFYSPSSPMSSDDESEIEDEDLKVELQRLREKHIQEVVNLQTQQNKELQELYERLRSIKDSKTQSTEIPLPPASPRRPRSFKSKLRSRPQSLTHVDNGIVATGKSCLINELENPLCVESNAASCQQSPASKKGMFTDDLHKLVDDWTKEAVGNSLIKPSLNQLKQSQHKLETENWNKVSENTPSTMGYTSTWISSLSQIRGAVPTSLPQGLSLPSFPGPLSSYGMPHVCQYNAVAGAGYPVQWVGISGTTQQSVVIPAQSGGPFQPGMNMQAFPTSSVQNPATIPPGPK

PRKD1 = biological target: T41, PRKD1 (Homo sapiens, UniProt Q15139)
T41 construct: purchased DiscoveRx KINOMEscan

TXK = biological target: T42, TXK (Homo sapiens, UniProt P42681)
T42 construct: purchased DiscoveRx KINOMEscan

T1 sequence (Q14012 whole entry): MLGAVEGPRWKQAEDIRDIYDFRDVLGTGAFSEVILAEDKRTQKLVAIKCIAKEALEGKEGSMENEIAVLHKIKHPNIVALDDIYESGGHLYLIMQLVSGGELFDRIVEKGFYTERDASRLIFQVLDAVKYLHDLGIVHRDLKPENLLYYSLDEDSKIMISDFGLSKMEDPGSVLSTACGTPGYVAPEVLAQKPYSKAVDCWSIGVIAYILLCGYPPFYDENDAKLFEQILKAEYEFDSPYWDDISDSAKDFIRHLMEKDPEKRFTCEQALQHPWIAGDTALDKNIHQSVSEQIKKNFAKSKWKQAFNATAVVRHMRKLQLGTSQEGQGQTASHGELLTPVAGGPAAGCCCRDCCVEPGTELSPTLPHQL

Compound: CCN(C(=O)CO)[C@H]1CN(/C(=N\C#N)Nc2cccc(OC(F)F)c2)N=C1c1ccc(Cl)c(Cl)c1 [(S)-4]
- remaining binding at 1 µM (CAMK1): 85%
- remaining binding at 1 µM (NIM1): 100%
- remaining binding at 1 µM (VEGFR2): 100%
- remaining binding at 1 µM (CASK): 61%
- remaining binding at 1 µM (FLT3(D835Y)): 78%
- remaining binding at 1 µM (MEK6): 74%
- remaining binding at 1 µM [1]: 93%
- remaining binding at 1 µM (NEK1): 93%
- remaining binding at 1 µM (PIK3CA(H1047Y)): 92%
- remaining binding at 1 µM (MAPKAPK2): 91%
- remaining binding at 1 µM (NLK): 100%
- remaining binding at 1 µM [2]: 66%
- remaining binding at 1 µM [3]: 88%
- remaining binding at 1 µM [4]: 95%
- remaining binding at 1 µM (SGK3): 98%
- remaining binding at 1 µM (MYLK): 86%
- remaining binding at 1 µM (FRK): 77%
- remaining binding at 1 µM (SNRK): 85%
- remaining binding at 1 µM (PLK1): 100%
- remaining binding at 1 µM (AAK1): 78%
- remaining binding at 1 µM (MAP3K4): 75%
- remaining binding at 1 µM (RET(V804M)): 100%
- remaining binding at 1 µM (KIT-autoinhibited): 90%
- remaining binding at 1 µM (EGFR(G719S)): 78%
- remaining binding at 1 µM (KIT(A829P)): 98%
- remaining binding at 1 µM (TESK1): 94%
- remaining binding at 1 µM [5]: 100%
- remaining binding at 1 µM (PDPK1): 59%
- remaining binding at 1 µM (PIM3): 88%
- remaining binding at 1 µM (AURKC): 77%
- remaining binding at 1 µM (TLK2): 93%
- remaining binding at 1 µM (EPHA6): 99%
- remaining binding at 1 µM (ERK3): 77%
- remaining binding at 1 µM [6]: 86%
- remaining binding at 1 µM (NEK10): 100%
- remaining binding at 1 µM (STK36): 81%
- remaining binding at 1 µM (PIK3C2G): 77%
- remaining binding at 1 µM (RAF1): 100%
- remaining binding at 1 µM (BRAF(V600E)): 100%
- remaining binding at 1 µM (WNK3): 93%
- remaining binding at 1 µM (PRKD1): 86%
- remaining binding at 1 µM (TXK): 73%
